One series concerns the target T1, hAPN (aminopeptidase N) (Homo sapiens, UniProt P15144).
T1 construct: human APN ecdomain (residues 66–967) were expressed and purified as previously described; honeybee-melittin signal peptide (N); His6 (C); made in house; host or cells: insect cells
The series is described as follows: Inhibition of cleavage of fluorogenic alanine substrate (H-Ala-AMC) by APN. To be noted: for Ki: APN, Ki from IC50 by Cheng-Prusoff equation; for Ki / IC50: 0.1 μM APN, 100 μM H-Ala-AMC; for IC50: pH 7.2, 37 °C, triplicate. It counts as biochemical. The protocol:
Five-residue long peptides containing P1–P4′ residues from primary cleavages in the library were synthesized and tested for their ability to prevent the cleavage of a fluorogenic alanine substrate by hAPN.
The peptides used in this study were custom synthesized by AAPPTEC of Louisville, KY using traditional Fmoc solid-phase peptide synthesis. All of the peptides were purified and characterized by AAPPTEC. […] Inhibition assays were performed in triplicate in a 100 mM Tris pH 7.2, Brij 35 0.0002% w/v assay buffer at 37 °C with 0.1 μM APN and 100 μM H-Ala-AMC (fluorophore). Values were recorded by Infinite pro plate reader every 2 minutes for 30 minutes with laser parameters set for excitation at 355 nm and emission at 460 nm.

Series [1] concerns PC3 cells. The series is described as follows: Clonogenic survival assay, PC3. It counts as cell-based. How it is done: (§1) The potential therapeutic efficacy of cyc-LHSPW was next tested in vitro using the PC3 and DU145 cell lines. […] Prior to in vivo therapeutic efficacy studies, a toxicity study was performed with the i.v. administration of cyc-LHSPW. […] Mice bearing established PC3 and DU145 xenografts were treated systemically via tail vein injection with 40 mg/kg of the tumor homing APN peptide cyc-NGR or the cyc-LHSPW peptide t.i.w. x4 (Fig. 6B). […] This therapeutic effect persisted to the end of the study with the cyc-LHSPW-treated mice having a tumor volume of 309.3 ± 92.7 mm^3 at day 35. […] PC3 tumors were removed and stained for the cellular proliferation marker Ki67.
(§2) Figure 6 The therapeutic evaluation of cyc-LHSPW in vivo and in vitro. (A) The effect of the three peptides cyc-LHSPW, LHSPW and cyc-nHSPW on the clonogenic survival of APN-expressing PC3 cells and APN-null DU145 cells. (B) Tumor growth of PC3 and DU145 xenograft mice treated with 40 mg/kg of cyc-LHSPW, cyc-NGR or saline control three times a week for four weeks. […] Statistical significance of cyc-LHSPW compared with control is denoted by: *P < 0.05; and **P < 0.01, as determined by the Student t test. […]
(§3) The clonogenic survival assays were conducted as previously described. […] Tumor measurements were made twice weekly with calipers and the tumor volume (in mm^3) was calculated by the formula 0.5236 × length (L) × width (W) × height (H). […]

Series [2] deals with DU145 cells. The series is described as follows: Clonogenic survival assay, DU145. In kind it is cell-based. How it is done:
as §1, §2, §3

The test system of series [3] is PC3 cells. The series is described as follows: Flow cytometry binding to APN-expressing PC3 cells. It counts as cell-based. To be noted: 500 nmol/L, 60 minutes, 4 °C. How it is done:
(§4) Next, the specificity of the lead peptide inhibitor cyc-LHSPW was tested against a panel of cancer-associated proteases with wide-ranging substrate specificities (Fig. 5A). APN was the only protease inhibited by cyc-LHSPW with chymotrypsin, trypsin, PSA, KLK7, aminopeptidase A, and the exopeptidase FAP all having Ki values above 100 μM. Having assessed selectivity for purified APN, we next evaluated the ability of cyc-LHSPW to preferentially bind to cells that express surface APN using flow cytometry (Fig. 5B). […] The expression of cell surface-associated APN was examined in the androgen receptor negative neuroendocrine prostate cancer cell lines PC3 and DU145 using a commercially available antibody. […] The peptide was next tested on frozen PC3 and DU145 tumor xenografts sections.
(§5) Figure 5 Determining the specificity of cyc-LHSPW for APN. (A) The cyc-LHSPW peptide was specific inhibitor of APN when compared to a panel of proteases. (B) Fluorescence microscopy of frozen PC3 (left) and DU145 (right) xenograft sections with cyc-LHSPW-(Gly)4-FITC. Sections were incubated with 250 nM of cyc-LHSPW-(Gly)4-FITC overnight and then visualized. The merged fluoresence channels are cyc-LHSPW-(Gly)4-FITC (green) and nuclei (DAPI, blue). (C) Analysis of APN inhibitor binding to PC3 (left) and DU145 cells (right) by flow cytometry. […]
In general terms: A flow cytometer gives signals particle by particle.

For series [4], the system named is DU145 cells. The series is described as follows: Flow cytometry binding to APN-null DU145 cells. It counts as cell-based. The settings on record: 500 nmol/L, 60 minutes, 4 °C. How it is done: as §4, §5
Series [5] deals with frozen PC3 and DU145 tumor xenografts sections. The series is described as follows: Fluorescence microscopy of frozen tumor xenograft sections. The settings on record: 250 nM overnight, PC3 vs DU145 sections. How it is done: as §4, §5
A further series has as its target aminopeptidase A (Homo sapiens, UniProt Q07075). The series is described as follows: Protease selectivity panel, aminopeptidase A. In kind it is biochemical. The protocol: as §4, §5
Another series concerns the target T2, FAP (Homo sapiens, UniProt Q12884).
T2 sequence (Q12884 1-760): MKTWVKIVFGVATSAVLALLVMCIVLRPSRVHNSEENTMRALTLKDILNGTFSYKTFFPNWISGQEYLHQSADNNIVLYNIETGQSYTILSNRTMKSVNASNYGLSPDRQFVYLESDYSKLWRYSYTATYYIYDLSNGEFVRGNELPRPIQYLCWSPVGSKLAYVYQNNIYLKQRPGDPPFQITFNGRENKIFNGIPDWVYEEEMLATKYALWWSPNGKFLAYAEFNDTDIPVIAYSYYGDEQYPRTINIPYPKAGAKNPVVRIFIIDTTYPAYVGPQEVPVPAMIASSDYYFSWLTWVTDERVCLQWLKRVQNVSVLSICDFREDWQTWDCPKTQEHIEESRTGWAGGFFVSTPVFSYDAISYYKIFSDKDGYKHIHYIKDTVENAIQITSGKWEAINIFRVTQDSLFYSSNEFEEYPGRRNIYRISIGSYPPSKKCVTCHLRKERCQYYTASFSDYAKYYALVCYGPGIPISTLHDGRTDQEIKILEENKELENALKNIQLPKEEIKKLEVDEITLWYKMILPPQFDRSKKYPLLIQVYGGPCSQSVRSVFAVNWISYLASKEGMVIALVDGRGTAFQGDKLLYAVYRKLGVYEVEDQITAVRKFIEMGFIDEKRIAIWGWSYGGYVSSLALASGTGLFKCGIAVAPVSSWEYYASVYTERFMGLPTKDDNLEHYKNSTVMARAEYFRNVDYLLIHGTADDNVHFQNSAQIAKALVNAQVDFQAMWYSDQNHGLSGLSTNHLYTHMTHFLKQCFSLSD
Nature of the series: Protease selectivity panel, FAP. In kind it is biochemical. The protocol:
as §4, §5

A further series has as its target PSA (Homo sapiens, UniProt P07288). Nature of the series: Protease selectivity panel, PSA. In kind it is biochemical. How it is done:
as §4, §5

Another series has as its target KLK7 (Homo sapiens, UniProt P49862). The series is described as follows: Protease selectivity panel, KLK7. In kind it is biochemical. How it is done: as §4, §5
Series [6] can be described thus: Toxicity study, i.v. administration. In kind it is in vivo. To be noted: mice. The protocol:
as §1

Positions of bridges follow the written chain, without caps; N, C: chain ends. Non-standard residues stand in square brackets, D forms with d. Residues, ends and D or L forms follow the SMILES beside them. Primed or numbered codes have the meaning given here. No end group written: not given here. *: point of attachment. FITC′ = fluorescein isothiocyanate label; Nle = CCCC[C@H](N)C(=O)O; Cbz = O=C(OCc1ccccc1)*; For = O=C*

T1 sequence (P15144 66-967): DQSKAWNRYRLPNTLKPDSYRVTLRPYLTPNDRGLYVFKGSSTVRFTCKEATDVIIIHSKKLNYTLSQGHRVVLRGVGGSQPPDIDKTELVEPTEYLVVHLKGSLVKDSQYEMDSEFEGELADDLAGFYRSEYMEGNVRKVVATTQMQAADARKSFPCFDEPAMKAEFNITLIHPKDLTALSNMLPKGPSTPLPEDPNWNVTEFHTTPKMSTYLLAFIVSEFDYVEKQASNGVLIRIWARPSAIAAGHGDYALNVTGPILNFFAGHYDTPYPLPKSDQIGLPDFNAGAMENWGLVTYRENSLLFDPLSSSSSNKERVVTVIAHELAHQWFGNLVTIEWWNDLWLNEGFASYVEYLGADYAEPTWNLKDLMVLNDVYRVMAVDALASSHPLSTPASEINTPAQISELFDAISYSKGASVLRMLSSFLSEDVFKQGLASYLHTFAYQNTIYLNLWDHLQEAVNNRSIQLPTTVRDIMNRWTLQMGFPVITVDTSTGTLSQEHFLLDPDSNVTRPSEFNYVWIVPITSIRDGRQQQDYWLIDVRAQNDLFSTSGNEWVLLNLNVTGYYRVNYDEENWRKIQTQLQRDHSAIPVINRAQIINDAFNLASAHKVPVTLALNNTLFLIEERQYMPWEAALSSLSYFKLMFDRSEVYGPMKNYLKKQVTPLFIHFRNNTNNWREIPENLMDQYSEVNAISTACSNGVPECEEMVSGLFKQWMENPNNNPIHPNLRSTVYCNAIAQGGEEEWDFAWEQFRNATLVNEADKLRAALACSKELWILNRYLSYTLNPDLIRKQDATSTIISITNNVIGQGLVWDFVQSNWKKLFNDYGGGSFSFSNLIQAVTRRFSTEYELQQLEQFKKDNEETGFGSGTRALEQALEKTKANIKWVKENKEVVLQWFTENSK
Sequence of aminopeptidase A (Q07075 whole entry, species assumed): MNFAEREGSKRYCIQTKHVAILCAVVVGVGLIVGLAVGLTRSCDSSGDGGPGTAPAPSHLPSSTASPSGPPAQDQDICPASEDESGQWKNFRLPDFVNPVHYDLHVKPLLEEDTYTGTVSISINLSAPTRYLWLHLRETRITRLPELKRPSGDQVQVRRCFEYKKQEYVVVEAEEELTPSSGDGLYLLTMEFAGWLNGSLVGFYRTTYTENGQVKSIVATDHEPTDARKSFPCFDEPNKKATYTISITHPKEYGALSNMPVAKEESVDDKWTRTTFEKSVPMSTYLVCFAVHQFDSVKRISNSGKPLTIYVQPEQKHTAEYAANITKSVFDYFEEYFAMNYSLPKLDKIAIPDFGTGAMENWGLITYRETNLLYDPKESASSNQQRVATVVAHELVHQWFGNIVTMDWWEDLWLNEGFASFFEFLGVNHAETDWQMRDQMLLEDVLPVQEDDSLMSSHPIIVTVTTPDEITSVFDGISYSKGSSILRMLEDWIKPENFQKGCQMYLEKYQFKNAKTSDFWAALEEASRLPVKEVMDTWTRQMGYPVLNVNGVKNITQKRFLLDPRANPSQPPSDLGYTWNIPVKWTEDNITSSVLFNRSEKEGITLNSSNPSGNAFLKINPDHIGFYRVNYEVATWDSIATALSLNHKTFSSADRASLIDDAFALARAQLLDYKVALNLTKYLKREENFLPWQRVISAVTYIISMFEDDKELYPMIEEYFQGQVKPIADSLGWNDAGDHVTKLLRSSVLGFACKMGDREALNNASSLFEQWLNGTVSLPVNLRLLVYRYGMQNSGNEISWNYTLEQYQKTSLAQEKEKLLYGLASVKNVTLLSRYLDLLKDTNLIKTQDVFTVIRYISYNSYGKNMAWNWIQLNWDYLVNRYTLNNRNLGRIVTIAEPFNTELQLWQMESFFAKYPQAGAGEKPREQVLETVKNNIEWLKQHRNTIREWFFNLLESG
Sequence of KLK7 (P49862 30-253, species assumed): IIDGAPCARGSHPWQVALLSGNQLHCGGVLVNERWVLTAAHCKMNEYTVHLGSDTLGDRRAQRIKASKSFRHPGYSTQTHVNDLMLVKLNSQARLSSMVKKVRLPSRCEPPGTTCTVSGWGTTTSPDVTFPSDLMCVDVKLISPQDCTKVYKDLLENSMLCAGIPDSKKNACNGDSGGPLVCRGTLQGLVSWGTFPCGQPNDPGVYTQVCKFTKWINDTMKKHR
Sequence of PSA (P07288 25-261): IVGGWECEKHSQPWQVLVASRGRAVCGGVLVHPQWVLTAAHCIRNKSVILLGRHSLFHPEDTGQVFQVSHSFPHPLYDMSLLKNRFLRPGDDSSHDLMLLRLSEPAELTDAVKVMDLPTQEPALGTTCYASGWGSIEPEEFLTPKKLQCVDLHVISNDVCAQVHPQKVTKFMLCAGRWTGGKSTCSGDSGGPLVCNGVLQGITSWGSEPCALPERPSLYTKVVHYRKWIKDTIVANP

With `CCCC[C@@H]1NC(=O)[C@@H](N)CSSC[C@@H](C(=O)O)NC(=O)[C@H](Cc2c[nH]c3ccccc23)NC(=O)[C@@H]2CCCN2C(=O)[C@H](CO)NC(=O)[C@H](Cc2c[nH]cn2)NC1=O` [cyc-nHSPW, Cys-nHSPW-Cys] (H-C[Nle]HSPWC-OH; disulfide 1-7; N-terminus and C-terminus assumed), the “inhibition of APN (in words)” value against hAPN (aminopeptidase N) is given as “eliminated any measureable inhibition of APN”. The clonogenic survival result in the series on PC3 cells [1] and in the series with DU145 cells [2] was “No significant biological effect” each time.

“cyc-LHSPW-(Gly)4-FITC: fluorophore-containing version of cyc-LHSPW with a (Gly)4-FITC group coupled to the C-terminal cysteine (CLHSPWCGGGG-{FITC′}; disulfide 1-7)”: the “binding to cells by flow cytometry” value with PC3 cells [3] is given as “selectively labeled the APN-expressing PC3 cells over the APN-null DU145 cells”; in the series on PC3 cells [3] (listed as FITC labeled cyc-LHSPW), “preferentially bound to PC3 cells”; in the series with DU145 cells [4] it was “no noticeable labelling of DU145 cells”. For the same compound, in series [5], the “labeling of xenograft sections by fluorescence microscopy” value is recorded as “Preferential labeling of the PC3 xenograft section was evident”.

In turn, `CC(C)C[C@H](NC(=O)OCc1ccccc1)C(=O)N[C@@H](Cc1c[nH]cn1)C(=O)N[C@@H](CO)C(=O)N1CCC[C@H]1C(=O)N[C@@H](Cc1c[nH]c2ccccc12)C(=O)O` [Cbz-LHSPW] (Cbz-LHSPW-OH) yielded a Ki on hAPN (aminopeptidase N) greater than 500 µM.

On to `C[C@@H]1NC(=O)[C@@H](N)CSSC[C@@H](C(=O)O)NC(=O)[C@H](Cc2c[nH]c3ccccc23)NC(=O)[C@@H]2CCCN2C(=O)[C@H](CO)NC(=O)[C@H](Cc2c[nH]cn2)NC1=O` [cyc-AHSPW, Cys-AHSPW-Cys] (H-CAHSPWC-OH; disulfide 1-7), for which the Ki at hAPN (aminopeptidase N) was greater than 500 µM.

RDLVD [RDLVD] yielded an IC50 on hAPN (aminopeptidase N) greater than 500 µM.

On to `CC(C)C[C@@H]1NC(=O)[C@@H](N)CSSC[C@@H](C(=O)O)NC(=O)[C@H](Cc2c[nH]c3ccccc23)NC(=O)[C@@H]2CCCN2C(=O)[C@H](CO)NC(=O)[C@H](Cc2c[nH]cn2)NC1=O` [cyc-LHSPW, Cys-LHSPW-Cys] (H-CLHSPWC-OH; disulfide 1-7), for which the Ki is 24.7 ± 1.4 µM at hAPN (aminopeptidase N); greater than 100 µM on aminopeptidase A; greater than 100 µM on FAP; greater than 100 µM on PSA; greater than 100 µM at KLK7. For the same compound, the tolerability result in series [6] (40 mg/kg three time a week for four weeks (t.i.w. x4)) was “well tolerated, i.e. no signs of morbidity”; in series [6] (multiple doses of 100 mg/kg), “resulted in cachexia”; in [6] (single high dose of 100 mg/kg), “well tolerated”.

`O=CN[C@@H](Cc1c[nH]cn1)C(=O)N[C@@H](CO)C(=O)N1CCC[C@H]1C(=O)N[C@@H](Cc1c[nH]c2ccccc12)C(=O)O` [For-HSPW] (For-HSPW-OH; C-terminus assumed) displayed a Ki at hAPN (aminopeptidase N) greater than 500 µM.

`CC(C)C[C@H](NC=O)C(=O)N[C@@H](Cc1c[nH]cn1)C(=O)N[C@@H](CO)C(=O)N1CCC[C@H]1C(=O)N[C@@H](Cc1c[nH]c2ccccc12)C(=O)O` [For-LHSPW] (For-LHSPW-OH): the Ki on hAPN (aminopeptidase N) is greater than 500 µM.

Regarding `CC(C)C[C@@H]1NC(=O)[C@@H](N)CSSC[C@@H](C(=O)O)NC(=O)[C@@H]2CCCN2C(=O)[C@H](CO)NC(=O)[C@H](Cc2c[nH]cn2)NC1=O` [cyc-LHSP] (H-CLHSPC-OH; disulfide 1-6), the Ki at hAPN (aminopeptidase N) stood at 121 ± 21.4 µM.

In turn, EHSPW [EHSPW] returned an IC50 on hAPN (aminopeptidase N) of 115 ± 17.2 µM.

Turning to FDWWG [FDWWG], at hAPN (aminopeptidase N), the IC50 is greater than 500 µM.

As usually defined, the Ki is a measure of affinity in units of concentration, obtained from inhibition or displacement. The low end stands for tighter binding, the high end for weaker binding. By IC50 is commonly meant the midpoint of a concentration-inhibition curve.

For the origin of these results see paper PMC5431086, “The Rational Design of Therapeutic Peptides for Aminopeptidase N using a Substrate-Based Approach” (Scientific Reports, 2017).
